Earlier results in patent US7655212B2, “Production of silver sulfate grains using a fluorinated additive” (Eastman Kodak Company, priority 2008, dated 2010).

System: Staphylococcus aureus
Details: in polymethylmethacrylate bone cement at 0.5% concentration
For `[Cl][Ag]` [Silver chloride], the “inhibition of bacterial growth of Staphylococcus aureus” value (“inhibition … of Staphylococcus aureus” below) is given as “significantly inhibit”. For `O=S(=O)([O-])[O-].[Ag+].[Ag+]` [silver sulfate], the “inhibition … of Staphylococcus aureus” value is given as “significantly inhibit”. In the case of silver oxide, the “inhibition … of Staphylococcus aureus” value is given as “significantly inhibit”.

System: Escherichia coli
Details: in polymethylmethacrylate bone cement at 0.5% concentration
For `[Cl][Ag]` [Silver chloride], the “inhibition of bacterial growth of Escherichia coli” value (“inhibition … of Escherichia coli” for short) is listed as “significantly inhibit”. For `O=S(=O)([O-])[O-].[Ag+].[Ag+]` [silver sulfate], the “inhibition … of Escherichia coli” value is given as “significantly inhibit”. For silver oxide, the “inhibition … of Escherichia coli” value is listed as “significantly inhibit”.

System: Pseudomonas aeruginosa
Details: in polymethylmethacrylate bone cement at 0.5% concentration
For `[Cl][Ag]` [Silver chloride], the “inhibition of bacterial growth of Pseudomonas aeruginosa” value (“inhibition … of Pseudomonas aeruginosa” for short) is given as “significantly inhibit”. In the case of `O=S(=O)([O-])[O-].[Ag+].[Ag+]` [silver sulfate], the “inhibition … of Pseudomonas aeruginosa” value is listed as “significantly inhibit”. In the case of silver oxide, the “inhibition … of Pseudomonas aeruginosa” value is given as “significantly inhibit”.
